Laboratory results from PubChem BioAssay AID330 (DTP/NCI, 2004).
“And” between values parts separate entries of the source, which are not always exact repeats. Identical values can stand only once. Inconclusive results and toxic doses are left out. Rule for the calls: active = survival T/C of 150% or more; inactive = T/C below 125% in these data.

System: P388 leukemia ip, CD2F1 mice, survival T/C
Experiment: NCI In Vivo Anticancer Drug Screen. Data for tumor model P388 Leukemia (intraperitoneal) in CD2F1 (CDF1) mice
Conditions: endpoint: median survival time, higher = longer survival
Method in brief: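 Mice carrying the transplanted tumor received test compound or vehicle. Survival was recorded in each group, and the value is the treated-group measurement divided by that of the vehicle-treated control group.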

[1] = dose: 6.25 mg/kg/injection, schedule: Q01DX009 (ip), vehicle: saline
[2] = dose: 12.5 mg/kg/injection, schedule: Q01DX009 (ip), vehicle: saline
[3] = dose: 25.0 mg/kg/injection, schedule: Q01DX009 (ip), vehicle: saline
[4] = dose: 60.0 mg/kg/injection, schedule: Q01DX005 (ip), vehicle: saline with Tween-80
[5] = dose: 120.0 mg/kg/injection, schedule: Q01DX005 (ip), vehicle: saline with Tween-80
[6] = dose: 50.0 mg/kg/injection, schedule: Q01DX005 (ip), vehicle: Klucel (hydroxypropylcellulose) (HPC)
[7] = dose: 100.0 mg/kg/injection, schedule: Q01DX005 (ip), vehicle: Klucel (hydroxypropylcellulose) (HPC)
[8] = dose: 12.5 mg/kg/injection, schedule: Q01DX005 (ip), vehicle: Klucel (hydroxypropylcellulose) (HPC)
[9] = dose: 25.0 mg/kg/injection, schedule: Q01DX005 (ip), vehicle: Klucel (hydroxypropylcellulose) (HPC)
[10] = dose: 200.0 mg/kg/injection, schedule: Q01DX005 (ip), vehicle: Klucel (hydroxypropylcellulose) (HPC)
[11] = dose: 50.0 mg/kg/injection, schedule: Q01DX005 (ip), vehicle: saline with Tween-80
[12] = dose: 100.0 mg/kg/injection, schedule: Q01DX005 (ip), vehicle: saline with Tween-80
[13] = dose: 25.0 mg/kg/injection, schedule: Q01DX009 (ip), vehicle: saline with Tween-80
[14] = dose: 50.0 mg/kg/injection, schedule: Q01DX009 (ip), vehicle: saline with Tween-80
[15] = dose: 100.0 mg/kg/injection, schedule: Q01DX009 (ip), vehicle: saline with Tween-80

Measured: T/C

COC(=O)C(CO)NC(=O)OCc1ccccc1 (stereo not given)
inactive: dose: 25.0 mg/kg/injection, schedule: Q01DX005 (ip), vehicle: water 99 % of control | dose: 50.0 mg/kg/injection, schedule: Q01DX005 (ip), vehicle: water 94 % of control | dose: 50.0 mg/kg/injection, schedule: Q01DX009 (ip), vehicle: distilled water + alcohol 95 % of control | dose: 100.0 mg/kg/injection, schedule: Q01DX005 (ip), vehicle: water 105 % of control | dose: 100.0 mg/kg/injection, schedule: Q01DX009 (ip), vehicle: distilled water + alcohol 98 % of control | dose: 200.0 mg/kg/injection, schedule: Q01DX005 (ip), vehicle: water 99 % of control | dose: 200.0 mg/kg/injection, schedule: Q01DX009 (ip), vehicle: distilled water + alcohol 100 % of control | dose: 400.0 mg/kg/injection, schedule: Q01DX009 (ip), vehicle: distilled water + alcohol 96 % of control

O=CNc1c(Br)cc2c(c1Br)Cc1cc([N+](=O)[O-])ccc1-2
inactive: [1] 97 % of control | [2] 90 % of control | [3] 92 % of control | dose: 50.0 mg/kg/injection, schedule: Q01DX009 (ip), vehicle: saline 89 % of control

CCOc1ccccc1NC(=O)/C(Cl)=C(\Cl)C(=O)O
inactive: [4] 109 % of control | [5] 107 % of control

CCC1(O)CC(OC2CC(O)C(O)CO2)c2c(O)c3c(c(O)c2C1C(=O)OC)C(=O)c1cccc(O)c1C3=O (stereo not given)
inactive: dose: 1.56 mg/kg/injection, schedule: Q01DX009 (ip), vehicle: other 90 % of control | dose: 3.13 mg/kg/injection, schedule: Q01DX009 (ip), vehicle: other 88 % of control | dose: 6.25 mg/kg/injection, schedule: Q01DX009 (ip), vehicle: other 101 % of control | dose: 12.5 mg/kg/injection, schedule: Q01DX009 (ip), vehicle: other 115 % of control | dose: 25.0 mg/kg/injection, schedule: Q01DX009 (ip), vehicle: other 92 % of control

CN1CCC/C1=C1/Cc2ccccc2C1=O
inactive: [6] 91 % of control | [7] 108 % of control

Cc1cc(N/N=C/c2ccccn2)c2cc3c(cc2n1)OCO3
inactive: [8] 103 % of control | [9] 104 % of control | [6] 101 % of control and 104 % of control

Cc1n[nH]c(=O)c(C#N)c1C
inactive: [6] 95 % of control | [7] 100 % of control | [10] 95 % of control

CCCN(CCC)C(=O)C(c1ccccc1)C(O)(c1ccccc1)c1ccccc1 (stereo not given)
inactive: [6] 100 % of control | [7] 95 % of control | [10] 92 % of control

COC(=O)C1CCC(/C(C#N)=C2/CCC(C(=O)OC)[N-]2)=N1.COC(=O)C1CCC(/C(C#N)=C2/CCC(C(=O)OC)[N-]2)=N1.[Cu+2] (stereo not given)
inactive: [4] 103 % of control | [5] 94 % of control

COc1ccc(S(=O)(=O)F)cc1C(=O)O
inactive: [4] 114 % of control | [5] 112 % of control | dose: 240.0 mg/kg/injection, schedule: Q01DX005 (ip), vehicle: saline with Tween-80 104 % of control

COc1ccc(/C=C/c2ccc3ccccc3[n+]2C)cc1Br
inactive: [8] 113 % of control | [9] 113 % of control | [6] 113 % of control and 119 % of control

CC1=CCC2CN(CCN(C)C)CC2C1 (stereo not given)
inactive: [11] 100 % of control | [12] 99 % of control

O=S1(=O)C=C(c2ccc3ccccc3c2)C1
inactive: dose: 100.0 mg/kg/injection, schedule: Q01DX001 (ip), vehicle: saline with Tween-80 105 % of control | dose: 200.0 mg/kg/injection, schedule: Q01DX001 (ip), vehicle: saline with Tween-80 100 % of control | dose: 400.0 mg/kg/injection, schedule: Q01DX001 (ip), vehicle: saline with Tween-80 96 % of control

CC(C)(C)C#CP(C#CC(C)(C)C)C#CC(C)(C)C
inactive: dose: 12.5 mg/kg/injection, schedule: Q04DX003 (ip), vehicle: Klucel (hydroxypropylcellulose) (HPC) 108 % of control | dose: 25.0 mg/kg/injection, schedule: Q04DX003 (ip), vehicle: Klucel (hydroxypropylcellulose) (HPC) 106 % of control | dose: 50.0 mg/kg/injection, schedule: Q04DX003 (ip), vehicle: Klucel (hydroxypropylcellulose) (HPC) 111 % of control

COC(=O)C1C(=O)COC1C (stereo not given)
inactive: dose: 50.0 mg/kg/injection, schedule: Q01DX005 (ip), vehicle: saline 102 % of control | dose: 200.0 mg/kg/injection, schedule: Q01DX005 (ip), vehicle: saline 102 % of control

O/N=C/C(Cl)(Cl)Cl
inactive: dose: 3.12 mg/kg/injection, schedule: Q01DX009 (ip), vehicle: saline 105 % of control | [1] 109 % of control | [2] 107 % of control and 97 % of control | [3] 100 % of control and 93 % of control

CC(C)(C)CC(C)(C)c1ccc(OCCO)cc1
inactive: dose: 50.0 mg/kg/injection, schedule: Q04DX003 (ip), vehicle: saline 91 % of control | dose: 100.0 mg/kg/injection, schedule: Q04DX003 (ip), vehicle: saline 108 % of control

O=C(ON1C(=O)CCC1=O)C1CCC(CN2C(=O)C=CC2=O)CC1 (stereo not given)
inactive: dose: 100.0 mg/kg/injection, schedule: Q04DX002 (ip), vehicle: saline with Tween-80 120 % of control

COC(=O)C1=C(C(=O)OC)C2CC3C4CC=C5CC(OC(C)=O)CCC5(C)C4CCC3(C)C2=C(OC(C)=O)C1 (stereo not given)
inactive: [11] 90 % of control | [12] 87 % of control

C=C1C(=O)OC2/C=C(\C=O)C3OC3C3OC3(C)CC(OC(=O)/C(=C/C)CO)C12 (stereo not given)
inactive: dose: 3.12 mg/kg/injection, schedule: Q01DX005 (ip), vehicle: Klucel (hydroxypropylcellulose) (HPC) 100 % of control | dose: 6.25 mg/kg/injection, schedule: Q01DX005 (ip), vehicle: Klucel (hydroxypropylcellulose) (HPC) 110 % of control | [8] 110 % of control | [9] 101 % of control

COc1ccc(Cc2c(O)ccc3ccccc23)cc1
inactive: [11] 104 % of control | [12] 104 % of control | dose: 200.0 mg/kg/injection, schedule: Q01DX005 (ip), vehicle: saline with Tween-80 111 % of control

O=C(O)C[N-]CC(=O)O.OO.[O]=[V]
inactive: dose: 3.75 mg/kg/injection, schedule: Q01DX005 (ip), vehicle: saline with Tween-80 102 % of control | dose: 7.5 mg/kg/injection, schedule: Q01DX005 (ip), vehicle: saline with Tween-80 105 % of control | dose: 15.0 mg/kg/injection, schedule: Q01DX005 (ip), vehicle: saline with Tween-80 112 % of control | dose: 30.0 mg/kg/injection, schedule: Q01DX005 (ip), vehicle: saline with Tween-80 120 % of control

CC1(C)CN2CCO[Si](CC[Si](C)(C)C)(OCC2)O1
inactive: [6] 105 % of control | [7] 105 % of control | [10] 102 % of control

CCOC(=O)CC(C)=N
inactive: [13] 112 % of control | [14] 99 % of control and 110 % of control and 114 % of control | [15] 106 % of control and 107 % of control and 113 % of control | dose: 200.0 mg/kg/injection, schedule: Q01DX009 (ip), vehicle: saline with Tween-80 103 % of control and 109 % of control and 123 % of control | dose: 400.0 mg/kg/injection, schedule: Q01DX009 (ip), vehicle: saline with Tween-80 103 % of control and 105 % of control

Cc1ccc2nc(N3C(=O)CSC3=S)sc2c1
inactive: dose: 50.0 mg/kg/injection, schedule: Q01DX009 (ip), vehicle: Klucel (hydroxypropylcellulose) (HPC) 100 % of control | dose: 100.0 mg/kg/injection, schedule: Q01DX009 (ip), vehicle: Klucel (hydroxypropylcellulose) (HPC) 96 % of control

COC(=O)c1cc2cc(OC)c(OC)cc2c2ccccc12
inactive: [11] 90 % of control | [12] 90 % of control

CC1(NC(=O)N(CCCl)N=O)CCCC1
inactive: [13] 104 % of control | [14] 104 % of control | dose: 50.0 mg/kg/injection, schedule: Q04DX003 (ip), vehicle: saline with Tween-80 100 % of control | [15] 109 % of control | dose: 100.0 mg/kg/injection, schedule: Q04DX003 (ip), vehicle: saline with Tween-80 100 % of control
